The Ki is the equilibrium dissociation constant of an inhibitor or competing ligand from its target. High values mean weaker binding, low ones tighter binding.

This is an account of results in article PMC6844379, “Design, synthesis, in vitro inhibition and toxicological evaluation of human carbonic anhydrases I, II and IX inhibitors in 5-nitroimidazole series” (Journal of Enzyme Inhibition and Medicinal Chemistry, 2019).

The assay has as its target T1, hCA I (Homo sapiens, UniProt P00915).
T1 construct: gene CA1; recombinant, obtained in house as reported earlier; cytosolic isoform
Briefly: stopped-flow CO2 hydrase assay. It is filed as biochemical. The note with it: […] Hepes pH […] Na2SO4, CO2 […], […] min pre-incubation at room temperature.

T1 sequence (P00915 2-261): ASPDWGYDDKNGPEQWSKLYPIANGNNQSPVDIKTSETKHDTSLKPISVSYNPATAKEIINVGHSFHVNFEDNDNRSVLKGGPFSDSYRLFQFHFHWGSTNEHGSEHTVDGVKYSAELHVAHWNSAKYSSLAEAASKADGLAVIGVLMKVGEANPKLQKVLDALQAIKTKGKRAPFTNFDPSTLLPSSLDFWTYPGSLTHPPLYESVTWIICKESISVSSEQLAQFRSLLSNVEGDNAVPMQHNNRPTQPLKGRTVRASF

Compound `Cc1ncc([N+](=O)[O-])n1CCS(N)(=O)=O` [compound 10, 2-(2-Methyl-5-nitro-1H-imidazol-1-yl)ethane-1-sulphonamide] registered an inhibition constant Ki of 6430 nM.
